According to US9815878B2, “Use of PEDF-derived polypeptides for preventing and/or ameliorating skin aging” (MacKay Memorial Hospital, priority 2012, dated 2017):
No end group written: not given here.

Assays:
[1] = Transdermal delivery of FITC-conjugated 29-mer ointment with or without microneedle patch, fluorescent microscopy of skin; assay type: in vivo, C57BL/6 mice; details: 24 hours later
Method: The Fluorescein (FITC)-conjugated 29-mer peptide was used to investigate the in vivo transdermal delivery of the present PEDF peptides.
First, the dorsal hair of 8-wk-old male C57BL/6 mice were removed using a melted wax/rosin mixture (1:1) under general anesthesia. On the next day, the ointment containing the FITC-conjugated 29-mer peptide (25 μM) was applied onto the dorsal skin of the mice, and then a microneedle patch (3M™ Microchannel Skin System; provided from 3M Singapore) was gently pressed against the dorsal skin so that the microneedles penetrated less than 100 microns into the skin (the FITC-29 mer/MN group). As to the control group (FITC-29 mer/CT), the mice received the ointment without subsequent microneedle treatment. Twenty-four hours later, the skin was harvested, fixed, cryosectioned and examined by fluorescent microscopy.
The H&E stained section in the left panel of FIG. 1 highlights the epidermis and dermis of the specimen. The fluorescence images in the middle and right panels of FIG. 1 illustrate the distribution of FITC-conjugated 29-mer across the skin.

[2] = system: primary mouse dermal fibroblasts; test: Dermal fibroblast proliferation in vitro, BrdU labeling assay; assay type: cell-based, C57BL/6 mouse; details: 24 hours; for BrdU/Vimentin Labeling Index (%): 50 nM peptide in 1% FBS medium, BrdU 2 hours
Method: (§1) Full-thickness skin tissue was obtained from the dorsum of C57BL/6 mouse. The subcutaneous tissue was carefully dissected from the skin and washed three times in sterile phosphate-buffered saline (PBS). The tissue was then cut into small pieces (1-2 mm^3). After being digested with 0.1% dispase at 4° C. overnight, the epidermal layers were removed, and the remaining dermal parts were further digested with 0.1% collagenase I at 37° C. for another 4 hours. The digested cells were then collected by centrifugation (400 g for 5 minutes) and resuspended in high-glucose DMEM supplemented with 10% FBS, 2 mM L-glutamine, and 1% penicillin-streptomycin antibiotic mixture. Cells were seeded onto tissue-culture plates (Falcon Labware; NJ, USA) at 1×10^3 cells/cm^2 and maintained at 37° C. with 5% CO2. After 24 hours, the medium was discarded to remove residual non-adherent cells, and cell culture was replenished with a fresh medium. For passage, near-confluent cells were harvested with 0.25% trypsin/EDTA.
After fixing with 4% paraformaldehyde, cells were exposed to cold methanol for 2 minutes, and then treated with 1 N HCl at room temperature for 1 hour before performing immunofluorescence staining.
BrdU-labeled DNA was detected by polyclonal anti-BrdU antibody and rhodamine-conjugated donkey anti-rabbit IgG. Nuclei were counterstained with Hoechst 33258 (blue).
Primary mouse dermal fibroblasts were isolated and cultured as described in the “Materials and Methods” section. The dermal fibroblast at passage 2 were seeded at gelatin-coated slide in a 6-well plate at a density of 2×10^5 cells per well and cultured in growth medium (DMEM 10% FBS) for 24 hours before being replaced by a basal growth medium with 1% FBS only (control group) or with 1% FBS plus an additional 50 nM of PEDF-derived peptide (i.e., 29-mer, 24-mer, 20-mer, 18-mer, Mo 29-mer, or Mo 20-mer) for 24 hours. For BrdU labeling assay, BrdU (final concentration, 10 μM) was added to the culture for 2 hours. The level of BrdU- and vimentin-double positive cells was expressed as the percentage of BrdU- and vimentin-double positive cells per total vimentin-positive cells (the BrdU/Vimentin Labeling Index), and the results were summarized in Table 2.

MMP-1 = test: UVB-induced MMP-1 protein expression in WS-1 cells, western blotting; assay type: cell-based, human
Method: Human skin fibroblast WS-1 cell line was obtained from Food Industry Research and Development Institute (Hsin-Chu, Taiwan). The WS-1 cells were maintained in a 37° C., 5% CO2 humidified incubator as monolayers in culture flasks. They were grown in 10% FBS-DMEM supplemented with 2 mM L-glutamine, 0.1 mM non-essential amino acids, 1% penicillin/streptomycin. For passage, near-confluent cells were sub-cultured by 0.25% trypsin/EDTA.
Skin tissues were homogenized in ice-cold lysis buffer containing 20 mM HEPES (pH 7.4), 150 mM NaCl, 1% SDS, 1 mM ethylenediamine tetraacetic acid (EDTA), 5 mM phenylmethanesulfonyl fluoride (PMSF), and 1 mM dithiothreitol (DTT), 1% Triton X-100, with freshly added protease inhibitor cocktail (Roche, Indianapolis, Ind.). Homogenates were then centrifuged at 12,000 g for 30 minutes at 4° C., and supernatants were then collected and stored at −70° C. Protein contents in lysates were determined using the Bradford assay. Whole cell lysates were prepared using the above lysis buffer. Aliquots of the lysates were then resolved on a SDS-PAGE and then electrotransferred to polyvinylidene difluoride (PVDF) membranes (Millipore, Bedford, Mass., USA) and processed for immunoblot analysis.
Antibodies used in the immunoblot study included anti-type I collagen 1A1 antibody (1:1000 dilution), anti-MMP-1 antibody (1:500 dilution) and anti-β-actin antibody (1:10000 dilution). Proteins of interest were detected using the appropriate IgG-HRP secondary antibody and ECL reagent (Amersham, Arlington Heights, Ill., USA). X-ray films were scanned on a Model GS-700 Imaging Densitometer (Bio-Rad Laboratories, Hercules, Calif.) and analyzed using Labworks 4.0 software. For quantification, blots from at least three independent experiments were used.
WS-1 were seeded on a six-well plate at a density of 1×10^5 cells per well and grown in the 10% FBS-DMEM growth medium for 24 hours and then incubated with 1% FBS-DMEM supplemented with or without 100 nM PEDF peptide for further 24 hours. The cells were washed twice with phosphate buffered saline (PBS) and exposed to UVB radiation covered with PBS. The UVB treatment was conducted in a cell culture hood by using a UVB lamp (model XL-1000B, Spectrolinker™ Inc.) at a final dose of 15 mJ/cm^2 for about 100 seconds. Cell viability was assayed using trapan blue exclusion assay (>95%). After UVB irradiation, PBS was replaced with 1% FBS-DMEM with or without PEDF peptide for further 48 hours and then protein extracts were assayed by western blotting for the expression of MMP-1 protein. Cells that were not subjected to UVB irradiation were used as control (normal). The expression level of MMP-1 was normalized with the expression level in the Vehicle/UVB group (set to 100%), and quantitative results are summarized in Table 6.

MMP-13 = test: UVB-induced MMP-13 mRNA expression in primary mouse dermal fibroblasts, RT-PCR; assay type: cell-based
Method: as §1
The total RNA was extracted from cells using the TRIzol (Invitrogen) and treated with RNase-free DNase I (Qiagen, Santa Clarita, Calif.) to remove genomic DNA and then purified with an RNA purification kit (Dynabeads; Invitrogen). 1 μg of total RNA retrieved from primary dermal fibroblast was reverse-transcribed into cDNA by 200 units of expand Reverse-Transcriptase (Roche, Mannheim, Germany) in 20 μl of reaction buffer containing 0.25 μg of random primers and 0.8 mM dNTPs at 42° C. for 1 hour. 2 μl of the cDNA was used for the PCR reaction as templates. PCR was performed in a 30 μl volume containing 15 μl of EconoTaq® PLUS GREEN 2× Master Mix (Lucigen® Corp.), 1 μM of each primer and 2 μl of template DNA. cDNA was synthesized in an 18-22 cycle amplification reaction (denaturation, 20 s, 94° C.; annealing, 30 s, 57° C.; and polymerization, 40 s, 72° C.). The number of cycles for the primer set was chosen to be in the linear range of amplification. The sequences of specific PCR primers were mouse MMP-13 (accession number: NM_008607) sense, […] (SEQ ID NO: 12); antisense, […] (SEQ ID NO: 13); PCR product: 201 bp; and mouse glyceraldehyde 3-phosphate dehydrogenase (GAPDH; accession number: M32599) sense, […] (SEQ ID NO: 14); and anti-sense, […] (SEQ ID NO: 15); PCR product: 223 bp.). The PCR products were electrophoresed in a 2% agarose gel containing ethidium bromide and visualized by UV illumination. The intensities of the PCR products were quantified densitometrically using a FUJI LAS-3000 system and Multi Gauge Ver. 1.01 software (Fujifilm, Tokyo, Japan).
Primary mouse dermal fibroblasts in passage 2 of monolayer cultures were incubated with 1% FBS-DMEM supplemented with or without 100 nM PEDF peptide for 24 hours, and then subjected to UVB irradiation as described above. After UVB irradiation, PBS was replaced with 1% FBS-DMEM with or without PEDF peptide for further 24 hours, and then cellular total RNAs were extracted for subsequent RT-PCR analysis. The expression level of MMP-13 mRNA was normalized with the expression level in the Vehicle/UVB group (set to 100%), and quantitative results are summarized in Table 7.

FITC-conjugated 29-mer: Fluorescein (FITC)-conjugated 29-mer peptide used to investigate in vivo transdermal delivery (SLGAEQRTESIIHRALYYDLISSPDIHGT; also: FITC conjugated, site not given here)
distribution of fluorescein signal across the skin (delivery to dermis) ([1]; ointment 25 μM on dorsal skin plus microneedle patch (FITC-29 mer/MN)): successfully delivered to the dermis
distribution of fluorescein signal across the skin (delivery to dermis) ([1]; ointment 25 μM on dorsal skin without microneedle treatment (FITC-29 mer/CT)): barely detectable in the dermis

SLGAEHRTESVIHRALYYDL [Mo 20-mer, synthetic peptide derived from mouse PEDF]
BrdU/Vimentin Labeling Index (%) [2]: 11.3 ± 1.6 %

SLGAEHRTESVIHRALYYDLITNPDIHST [Mo 29-mer, synthetic peptide derived from mouse PEDF]
BrdU/Vimentin Labeling Index (%) [2]: 11.1 ± 2.0 %

SLGAEQRTESIIHRALYYDLISSP [24-mer, synthetic peptide corresponding to residues 93-116 of human PEDF]
BrdU/Vimentin Labeling Index (%) [2]: 10.1 ± 1.9 %
proliferation relative to control medium ([2]; 50 nM peptide): about 5 fold
MMP-1 Expression Level (%) (MMP-1; 100 nM peptide 24 h before and 48 h after UVB 15 mJ/cm^2, Vehicle/UVB set to 100%): 48 ± 7.2 %
MMP-1 protein level relative to vehicle/UVB group (MMP-1; pre-incubation with peptide, UVB): about half
MMP-13 Expression Level (%) (MMP-13; 100 nM peptide 24 h before and 24 h after UVB 15 mJ/cm^2, mRNA, Vehicle/UVB set to 100%): 16.3 ± 1.5 %
effect on UVB-induced upregulation of MMP-13 (MMP-13; cells pretreated with peptide, UVB): substantially reduced
